Measurements published in ChEMBL document CHEMBL2440076, “New triarylpyrazoles as broad-spectrum anticancer agents: design, synthesis, and biological evaluation” (Eur J Med Chem, 2013).

Experiments:
Assay type in all cases: functional
[1] = Growth inhibition of human NCI-ADR-RES cells assessed as cell growth at 3X10'-7 M after 48 hrs by sulforhodamine B assay; conditions: read-out: Activity
[2] = system: MDA-MB-435; test: Growth inhibition of human MDA-MB-435 cells assessed as cell growth at 3X10'-7 M after 48 hrs by sulforhodamine B assay; conditions: MDA-MB-435, 48 h, read-out: Activity
[3] = system: SF-539; test: Growth inhibition of human SF539 cells assessed as cell growth at 3X10'-7 M after 48 hrs by sulforhodamine B assay; conditions: SF-539, 48 h, read-out: Activity
[4] = system: SF-295; test: Growth inhibition of human SF295 cells assessed as cell growth at 3X10'-7 M after 48 hrs by sulforhodamine B assay; conditions: SF-295, 48 h, read-out: Activity
[5] = system: DU-145; test: Growth inhibition of human DU145 cells assessed as cell growth at 3X10'-8 M after 48 hrs by sulforhodamine B assay; conditions: DU-145, 48 h, read-out: Activity
[6] = system: SN12C; test: Growth inhibition of human SN12C cells assessed as cell growth at 3X10'-8 M after 48 hrs by sulforhodamine B assay; conditions: read-out: Activity
[7] = system: OVCAR-8; test: Growth inhibition of human OVCAR8 cells assessed as cell growth at 3X10'-8 M after 48 hrs by sulforhodamine B assay; conditions: OVCAR-8, 48 h, read-out: Activity
[8] = system: CCRF-CEM; test: Growth inhibition of human CCRF-CEM cells assessed as cell growth at 3X10'-9 M after 48 hrs by sulforhodamine B assay; conditions: read-out: Activity
[9] = system: SK-MEL-2; test: Growth inhibition of human SK-MEL-2 cells assessed as cell growth at 3X10'-8 M after 48 hrs by sulforhodamine B assay; conditions: SK-MEL-2, 48 h, read-out: Activity
[10] = system: SF-539; test: Growth inhibition of human SF539 cells assessed as cell growth at 3X10'-8 M after 48 hrs by sulforhodamine B assay; conditions: SF-539, 48 h, read-out: Activity
[11] = system: SW-620; test: Growth inhibition of human SW620 cells assessed as cell growth at 3X10'-8 M after 48 hrs by sulforhodamine B assay; conditions: SW-620, 48 h, read-out: Activity
[12] = system: HL-60(TB); test: Growth inhibition of human HL-60(TB) cells assessed as cell growth at 3X10'-8 M after 48 hrs by sulforhodamine B assay; conditions: HL-60, 48 h, read-out: Activity
[13] = system: 786-0; test: Growth inhibition of human 786-0 cells assessed as cell growth at 3X10'-5 M after 48 hrs by sulforhodamine B assay; conditions: 786-0, 48 h, read-out: Activity
[14] = system: MDA-MB-231; test: Growth inhibition of human MDA-MB-231 cells assessed as cell growth at 3X10'-9 M after 48 hrs by sulforhodamine B assay; conditions: MDA-MB-231, 48 h, read-out: Activity
[15] = system: MCF7; test: Growth inhibition of human MCF7 cells assessed as cell growth at 3X10'-9 M after 48 hrs by sulforhodamine B assay; conditions: MCF7, 48 h, read-out: Activity
[16] = system: PC-3; test: Growth inhibition of human PC3 cells assessed as cell growth at 3X10'-9 M after 48 hrs by sulforhodamine B assay; conditions: PC-3, 48 h, read-out: Activity
[17] = system: RXF 393; test: Growth inhibition of human RXF393 cells assessed as cell growth at 3X10'-9 M after 48 hrs by sulforhodamine B assay; conditions: RXF 393, 48 h, read-out: Activity
[18] = system: UACC-257; test: Growth inhibition of human UACC257 cells assessed as cell growth at 3X10'-5 M after 48 hrs by sulforhodamine B assay; conditions: UACC-257, 48 h, read-out: Activity
[19] = system: U-251; test: Growth inhibition of human U251 cells assessed as cell growth at 3X10'-5 M after 48 hrs by sulforhodamine B assay; conditions: U-251, 48 h, read-out: Activity
[20] = system: SF-295; test: Growth inhibition of human SF295 cells assessed as cell growth at 3X10'-5 M after 48 hrs by sulforhodamine B assay; conditions: SF-295, 48 h, read-out: Activity
[21] = system: MDA-MB-231; test: Growth inhibition of human MDA-MB-231 cells assessed as cell growth at 3X10'-6 M after 48 hrs by sulforhodamine B assay; conditions: MDA-MB-231, 48 h, read-out: Activity
[22] = system: SK-MEL-2; test: Growth inhibition of human SK-MEL-2 cells assessed as cell growth at 3X10'-9 M after 48 hrs by sulforhodamine B assay; conditions: SK-MEL-2, 48 h, read-out: Activity
[23] = system: SNB-19; test: Growth inhibition of human SNB19 cells assessed as cell growth at 3X10'-9 M after 48 hrs by sulforhodamine B assay; conditions: SNB-19, 48 h, read-out: Activity
[24] = system: SF-295; test: Growth inhibition of human SF295 cells assessed as cell growth at 3X10'-9 M after 48 hrs by sulforhodamine B assay; conditions: SF-295, 48 h, read-out: Activity
[25] = system: SW-620; test: Growth inhibition of human SW620 cells assessed as cell growth at 3X10'-9 M after 48 hrs by sulforhodamine B assay; conditions: SW-620, 48 h, read-out: Activity
[26] = system: NCI-H460; test: Growth inhibition of human NCI-H460 cells assessed as cell growth at 3X10'-9 M after 48 hrs by sulforhodamine B assay; conditions: NCI-H460, 48 h, read-out: Activity
[27] = system: HOP-62; test: Growth inhibition of human HOP62 cells assessed as cell growth at 3X10'-9 M after 48 hrs by sulforhodamine B assay; conditions: HOP-62, 48 h, read-out: Activity
[28] = system: RPMI-8226; test: Growth inhibition of human RPMI8226 cells assessed as cell growth at 3X10'-9 M after 48 hrs by sulforhodamine B assay; conditions: RPMI-8226, 48 h, read-out: Activity
[29] = system: SK-MEL-2; test: Growth inhibition of human SK-MEL-2 cells assessed as cell growth at 3X10'-6 M after 48 hrs by sulforhodamine B assay; conditions: SK-MEL-2, 48 h, read-out: Activity
[30] = system: BT-549; test: Growth inhibition of human BT549 cells assessed as cell growth at 3X10'-7 M after 48 hrs by sulforhodamine B assay; conditions: BT-549, 48 h, read-out: Activity
[31] = system: MCF7; test: Growth inhibition of human MCF7 cells assessed as cell growth at 3X10'-7 M after 48 hrs by sulforhodamine B assay; conditions: MCF7, 48 h, read-out: Activity
[32] = system: ACHN; test: Growth inhibition of human ACHN cells assessed as cell growth at 3X10'-7 M after 48 hrs by sulforhodamine B assay; conditions: read-out: Activity

COc1cc(-c2nn(-c3cccc(NC(=O)c4ccc(Cl)c(C(F)(F)F)c4)c3)cc2-c2ccncc2)ccc1Cl
growth at 0.3 µM [1]: 91%
growth at 0.3 µM [2]: 87%
growth at 0.3 µM [3]: 91%
growth at 0.3 µM [4]: 90%
growth at 0.03 µM [5]: 100%
growth at 0.03 µM [6]: 99%
growth at 0.03 µM [7]: 98%
growth at 0.003 µM [8]: 96%
growth at 0.03 µM [9]: 100%
growth at 0.03 µM [10]: 102%
growth at 0.03 µM [11]: 97%
growth at 0.03 µM [12]: 113%
growth at 30 µM [13]: 32%
growth at 0.003 µM [14]: 99%
growth at 0.003 µM [15]: 93%
growth at 0.003 µM [16]: 94%
growth at 0.003 µM [17]: 99%
growth at 30 µM [18]: 32%
growth at 30 µM [19]: 15%
growth at 30 µM [20]: -10%
growth at 3 µM [21]: 27%
growth at 0.003 µM [22]: 92%
growth at 0.003 µM [23]: 95%
growth at 0.003 µM [24]: 92%
growth at 0.003 µM [25]: 98%
growth at 0.003 µM [26]: 103%
growth at 0.003 µM [27]: 98%
growth at 0.003 µM [28]: 97%
growth at 3 µM [29]: 36%
growth at 0.3 µM [30]: 95%
growth at 0.3 µM [31]: 89%
growth at 0.3 µM [32]: 90%
